According to PubChem BioAssay (NCI):
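Cells were grown in 96-well plates and exposed to each compound for 48 hours at five concentrations; endpoints were interpolated linearly between bracketing concentrations, or set to the highest concentration if not reached. GI50 is the concentration that inhibits growth by half. Definition used: TGI = concentration required for complete inhibition of growth.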

Assays:
Test in all cases: growth of human tumour cells (NCI), 48 h
[1] = system: MDA-MB-468 breast
[2] = system: PC-3 prostate
[3] = system: K-562 leukemia
[4] = system: TK-10 renal
[5] = system: HCT-116 colon
[6] = system: A498 renal
[7] = system: IGROV1 ovarian
[8] = system: NCI-H460 lung
[9] = system: SR leukemia
[10] = system: SF-295 CNS
[11] = system: OVCAR-3 ovarian
[12] = system: OVCAR-5 ovarian
[13] = system: HOP-62 NSCLC
[14] = system: MCF7 breast
[15] = system: NCI-H226 lung
[16] = system: OVCAR-4 ovarian
[17] = system: UO-31 renal
[18] = system: MOLT-4 leukemia
[19] = system: UACC-257 melanoma
[20] = system: NCI-H23 lung
[21] = system: HCT-15 colon
[22] = system: SK-MEL-2 melanoma
[23] = system: HCC-2998 colon
[24] = system: KM12 colon
[25] = system: HT29 colon
[26] = system: NCI/ADR-RES ovarian
[27] = system: LOX IMVI melanoma
[28] = system: HL-60(TB) leukemia
[29] = system: SK-MEL-28 melanoma
[30] = system: U251 CNS
[31] = system: SN12C renal
[32] = system: SF-539 CNS
[33] = system: MDA-MB-435
[34] = system: CAKI-1 renal
[35] = system: COLO 205 colon
[36] = system: RPMI-8226 leukemia
[37] = system: EKVX NSCLC
[38] = system: SW-620 colon
[39] = system: MDA-MB-231 breast
[40] = system: SK-OV-3 ovarian
[41] = system: SK-MEL-5 melanoma
[42] = system: CCRF-CEM leukemia
[43] = system: MALME-3M melanoma
[44] = system: SNB-75 CNS
[45] = system: UACC-62 melanoma
[46] = system: SF-268 CNS
[47] = system: SNB-19 CNS
[48] = system: HS 578T breast
[49] = system: BT-549 breast
[50] = system: 786-0 renal
[51] = system: RXF 393 renal
[52] = system: ACHN renal
[53] = system: DU-145 prostate
[54] = system: HOP-92 NSCLC
[55] = system: A549 NSCLC
[56] = system: OVCAR-8 ovarian
[57] = system: M14 melanoma
[58] = system: NCI-H522 lung
[59] = system: T-47D breast

In the case of Cn1cc(-c2nc(N)nnc2-c2c[nH]c3ccc(F)cc23)c2cc(Br)cnc21, the GI50 [1] is reported as 27.2 nM, the TGI [1] is reported as 124 nM and the GI50 [2] is reported as 94.9 nM. The TGI [2] was 48.9 µM, the GI50 [3] was 39.4 nM and the TGI [3] was over 100 µM. It also gave a GI50 [4] of 10.6 µM, a TGI [4] of 25.8 µM and a GI50 [5] of 52.1 nM. For the same molecule, the TGI [5] was 13.1 µM, the GI50 [6] was 13.6 µM and the TGI [6] was 27.1 µM. The GI50 [7] was 72.7 nM, the TGI [7] was 14.3 µM and the GI50 [8] was 45.8 nM. The TGI [8] was 3.77 µM, the GI50 [9] was 38.8 nM and the TGI [9] was over 54.9 µM. It also gave a GI50 [10] of 48.8 nM, a TGI [10] of 12.3 µM and a GI50 [11] of 53 nM. The TGI [11] was 15.7 µM, the GI50 [12] was 217 nM and the TGI [12] was 14.6 µM. The GI50 [13] was 85.8 nM, the TGI [13] was 19.2 µM and the GI50 [14] was 35.8 nM. It also gave a TGI [14] of 12.3 µM, a GI50 [15] of 109 nM and a TGI [15] of 12.7 µM. For the same molecule, the GI50 [16] was 3.56 µM, the TGI [16] was 33 µM and the GI50 [17] was 276 nM. The TGI [17] was 13.2 µM, the GI50 [18] was 161 nM and the TGI [18] was 14.8 µM. It also gave a GI50 [19] of 11.8 µM, a TGI [19] of 25.1 µM and a GI50 [20] of 198 nM. The TGI [20] was 11.2 µM, the GI50 [21] was 52.3 nM and the TGI [21] was 11.6 µM. For the same molecule, the GI50 [22] was 87.2 nM, the TGI [22] was 13.6 µM and the GI50 [23] was 156 nM. The TGI [23] was 5.77 µM, the GI50 [24] was 50.8 nM and the TGI [24] was 13.4 µM. The GI50 [25] was 50.6 nM, the TGI [25] was 615 nM and the GI50 [26] was 155 nM. The TGI [26] was 1170 nM, the GI50 [27] was 63.5 nM and the TGI [27] was 14.9 µM. For the same molecule, the GI50 [28] was 39 nM, the TGI [28] was 290 nM and the GI50 [29] was 161 nM. It also gave a TGI [29] of 19.5 µM, a GI50 [30] of 57.4 nM and a TGI [30] of 13 µM. It also gave a GI50 [31] of 204 nM, a TGI [31] of 13.8 µM and a GI50 [32] of 0.0462 µM. For the same molecule, the TGI [32] was 405 nM, the GI50 [33] was 26.2 nM and the TGI [33] was 78.2 nM. For the same molecule, the GI50 [34] was 76.4 nM, the TGI [34] was 17 µM and the GI50 [35] was 73.7 nM. It also gave a TGI [35] of 886 nM, a GI50 [36] of 403 nM and a TGI [36] of over 100 µM. The GI50 [37] was 279 nM, the TGI [37] was 17.7 µM and the GI50 [38] was 48.7 nM. The TGI [38] was 15.2 µM, the GI50 [39] was 121 nM and the TGI [39] was 8.26 µM. The GI50 [40] was 126 nM, the TGI [40] was 19.6 µM and the GI50 [41] was 40.2 nM. The TGI [41] was 1690 nM, the GI50 [42] was 109 nM and the TGI [42] was over 67.1 µM. It also gave a GI50 [43] of 52.5 nM, a TGI [43] of 18.8 µM and a GI50 [44] of 0.0474 µM. The TGI [44] was 14.1 µM, the GI50 [45] was 32.3 nM and the TGI [45] was 12.8 µM. It also gave a GI50 [46] of 1460 nM, a TGI [46] of 18.9 µM and a GI50 [47] of 139 nM. The TGI [47] was 12.7 µM, the GI50 [48] was 49.6 nM and the TGI [48] was 25.8 µM. It also gave a GI50 [49] of 91.8 nM, a TGI [49] of 10.1 µM and a GI50 [50] of 145 nM. For the same molecule, the TGI [50] was 18 µM, the GI50 [51] was 47.1 nM and the TGI [51] was 236 nM. It also gave a GI50 [52] of 91.1 nM, a TGI [52] of 15.4 µM and a GI50 [53] of 144 nM. It also gave a TGI [53] of 14.1 µM, a GI50 [54] of 5.93 µM and a TGI [54] of 30.7 µM. It also gave a GI50 [55] of 172 nM, a TGI [55] of over 48.4 µM and a GI50 [56] of 192 nM. The TGI [56] was 12.4 µM, the GI50 [57] was 0.087 µM and the TGI [57] was 16.2 µM. The GI50 [58] was 19.3 nM and the TGI [58] was 231 nM.
COCOc1cc2c(=O)c(C)c(C(=O)N[C@@H](Cc3ccccc3)C(O)C(=O)NCc3ccccc3)oc2cc1OC (some centres undefined) was tested, and the GI50 [1] was over 100000 nM, the TGI [1] was over 100000 nM and the GI50 [2] was over 100000 nM. The TGI [2] was over 100 µM, the GI50 [3] was over 100000 nM and the TGI [3] was over 100 µM. It also gave a GI50 [4] of over 100 µM, a TGI [4] of over 100 µM and a GI50 [5] of over 100000 nM. The TGI [5] was over 100 µM, the GI50 [6] was over 100 µM and the TGI [6] was over 100 µM. For the same molecule, the GI50 [7] was over 100000 nM, the TGI [7] was over 100 µM and the GI50 [8] was over 100000 nM. It also gave a TGI [8] of over 100 µM, a GI50 [9] of over 100000 nM and a TGI [9] of over 100 µM. It also gave a GI50 [10] of over 100000 nM, a TGI [10] of over 100 µM and a GI50 [11] of over 100000 nM. It also gave a TGI [11] of over 100 µM, a GI50 [12] of over 100000 nM and a TGI [12] of over 100 µM. The GI50 [13] was over 100000 nM, the TGI [13] was over 100 µM and the GI50 [14] was over 100000 nM. The TGI [14] was over 100 µM, the GI50 [15] was over 100000 nM and the TGI [15] was over 100 µM. The GI50 [16] was over 100 µM, the TGI [16] was over 100 µM and the GI50 [17] was over 100000 nM. For the same molecule, the TGI [17] was over 100 µM, the GI50 [18] was over 100000 nM and the TGI [18] was over 100 µM. For the same molecule, the GI50 [19] was over 100 µM, the TGI [19] was over 100 µM and the GI50 [20] was over 100000 nM. It also gave a TGI [20] of over 100 µM, a GI50 [21] of over 100000 nM and a TGI [21] of over 100 µM. It also gave a GI50 [22] of over 100000 nM, a TGI [22] of over 100 µM and a GI50 [59] of over 100 µM. For the same molecule, the TGI [59] was over 100 µM, the GI50 [23] was over 100000 nM and the TGI [23] was over 100 µM. For the same molecule, the GI50 [24] was over 100000 nM, the TGI [24] was over 100 µM and the GI50 [25] was over 100000 nM. For the same molecule, the TGI [25] was over 100000 nM, the GI50 [26] was over 100000 nM and the TGI [26] was over 100000 nM. It also gave a GI50 [27] of over 100000 nM, a TGI [27] of over 100 µM and a GI50 [28] of over 100000 nM. It also gave a TGI [28] of over 100000 nM, a GI50 [29] of over 100000 nM and a TGI [29] of over 100 µM. For the same molecule, the GI50 [30] was over 100000 nM, the TGI [30] was over 100 µM and the GI50 [31] was over 100000 nM. The TGI [31] was over 100 µM, the GI50 [32] was 38.3 µM and the TGI [32] was over 100000 nM. For the same molecule, the GI50 [33] was over 100000 nM, the TGI [33] was over 100000 nM and the GI50 [34] was over 100000 nM. It also gave a TGI [34] of over 100 µM, a GI50 [35] of over 100000 nM and a TGI [35] of over 100000 nM. The GI50 [36] was over 100000 nM, the TGI [36] was over 100 µM and the GI50 [37] was over 100000 nM. For the same molecule, the TGI [37] was over 100 µM, the GI50 [38] was over 100000 nM and the TGI [38] was over 100 µM. It also gave a GI50 [39] of over 100000 nM, a TGI [39] of over 100 µM and a GI50 [40] of over 100000 nM. The TGI [40] was over 100 µM, the GI50 [41] was over 100000 nM and the TGI [41] was over 100000 nM. The GI50 [42] was over 100000 nM, the TGI [42] was over 100 µM and the GI50 [43] was over 100000 nM. The TGI [43] was over 100 µM, the GI50 [44] was 96.7 µM and the TGI [44] was over 100 µM. It also gave a GI50 [45] of over 100000 nM, a TGI [45] of over 100 µM and a GI50 [46] of over 100000 nM. The TGI [46] was over 100 µM, the GI50 [47] was over 100000 nM and the TGI [47] was over 100 µM. It also gave a GI50 [48] of over 100000 nM, a TGI [48] of over 100 µM and a GI50 [49] of over 100000 nM. For the same molecule, the TGI [49] was over 100 µM, the GI50 [50] was over 100000 nM and the TGI [50] was over 100 µM. The GI50 [51] was over 100000 nM, the TGI [51] was over 100000 nM and the GI50 [52] was over 100000 nM. For the same molecule, the TGI [52] was over 100 µM, the GI50 [53] was over 100000 nM and the TGI [53] was over 100 µM. The GI50 [54] was over 100 µM, the TGI [54] was over 100 µM and the GI50 [55] was over 100000 nM. The TGI [55] was over 100 µM, the GI50 [56] was over 100000 nM and the TGI [56] was over 100 µM. It also gave a GI50 [57] of 62.5 µM, a TGI [57] of over 100 µM and a GI50 [58] of over 100000 nM. It also gave a TGI [58] of over 100000 nM.
